Our source for the GI50 and TGI values is PubChem BioAssay (NCI).

Among the test systems are ACHN renal; COLO 205 colon; EKVX NSCLC; HT29 colon; MDA-MB-231 breast; NCI-H23 lung; RXF 393 renal; SK-OV-3 ovarian; SN12C renal; SNB-75 CNS.
Assay in all cases: NCI anticancer screen, dose series, 48 h

Each structure is given as a SMILES string.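 Protocol summary: plate cells (96-well), add compound at 5 concentrations, incubate 48 h, interpolate endpoints linearly. GI50 marks 50% less growth. TGI: total growth inhibition.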

For the compound `Cc1ccc2[nH]c3c(c2c1)N=c1ccccc1=NO3`, the GI50 was 32300 nM with ACHN renal; 31.9 µM in the assay with COLO 205 colon; 26200 nM with EKVX NSCLC; 76100 nM in the assay with HT29 colon; 35900 nM with MDA-MB-231 breast; 75900 nM in the assay on NCI-H23 lung. Moreover, the GI50 in the assay with RXF 393 renal is 47600 nM; in the assay with SK-OV-3 ovarian, 29900 nM; in the assay with SN12C renal, 36500 nM; with SNB-75 CNS, 25400 nM. Moreover, the TGI with ACHN renal, in the assay with COLO 205 colon, with EKVX NSCLC, in the assay on HT29 colon, in the assay with MDA-MB-231 breast and with NCI-H23 lung was greater than 100 µM each time. The TGI in the assay with RXF 393 renal, with SK-OV-3 ovarian, with SN12C renal and in the assay with SNB-75 CNS was greater than 100 µM throughout.

Turning to `Nc1ncn(C2OC(COP(=O)(O)O)C(O)C2O)c(=O)n1` (stereo unspecified), the TGI with ACHN renal was greater than 100 µM; in the assay on COLO 205 colon, greater than 100 µM; with EKVX NSCLC, greater than 79 µM; in the assay with HT29 colon, greater than 100 µM; in the assay with MDA-MB-231 breast, greater than 100 µM; in the assay with NCI-H23 lung, greater than 100 µM. In addition, the TGI with RXF 393 renal, in the assay with SK-OV-3 ovarian, in the assay on SN12C renal and with SNB-75 CNS was greater than 100 µM throughout.

Take `COC12C=C/C(=C(/C(=O)OCCSc3ccnn3C)C(=O)CCCCCCCCC3(OC)C=C/C(=C(/C(=O)OCCSc4ccnn4C)C(=O)CCCCCCCC1)O3)O2`: the GI50 in the assay on ACHN renal was 1070 nM; with COLO 205 colon, 0.814 µM; in the assay with EKVX NSCLC, 1150 nM; in the assay on HT29 colon, 1250 nM; with MDA-MB-231 breast it was 1050 nM; in the assay with NCI-H23 lung it was 854 nM. The GI50 in the assay on RXF 393 renal was 665 nM; in the assay with SK-OV-3 ovarian it was 1660 nM; with SN12C renal, 1050 nM; with SNB-75 CNS it was 999 nM. Also, the TGI in the assay on ACHN renal is greater than 32.5 µM; with COLO 205 colon, 2.15 µM; with EKVX NSCLC, 12.1 µM; in the assay on HT29 colon, greater than 32.5 µM; in the assay with MDA-MB-231 breast, 3.06 µM; in the assay with NCI-H23 lung, 2.37 µM. In addition, the TGI is 1.17 µM with RXF 393 renal, 24.9 µM in the assay with SK-OV-3 ovarian, 5.64 µM in the assay with SN12C renal and 4.9 µM with SNB-75 CNS.

For the compound `CC(CN1CC(=O)NC(=O)C1)N1CC(=O)NC(=O)C1` (stereo unspecified), the TGI was greater than 750 µM with ACHN renal; 443 µM with COLO 205 colon; greater than 750 µM with EKVX NSCLC; greater than 687 µM in the assay with HT29 colon; greater than 750 µM in the assay with MDA-MB-231 breast; greater than 750 µM in the assay with NCI-H23 lung. For the same compound, the TGI in the assay with RXF 393 renal is greater than 750 µM; in the assay with SK-OV-3 ovarian, greater than 672 µM; in the assay with SN12C renal it was greater than 750 µM; with SNB-75 CNS, greater than 715 µM. In the assay with COLO 205 colon, the GI50 was 25.3 µM.

On to `COc1cc(OC)c(/C=C/C(=O)c2ccc(Nc3ncnc4ccccc34)cc2)c(OC)c1`, for which the GI50 in the assay on ACHN renal is 1830 nM; with COLO 205 colon, 0.614 µM; in the assay on EKVX NSCLC, 1690 nM; with HT29 colon it was 364 nM; in the assay with MDA-MB-231 breast, 1430 nM; in the assay on NCI-H23 lung, 843 nM. For the same compound, the GI50 with RXF 393 renal was 488 nM; with SK-OV-3 ovarian, 1020 nM; in the assay on SN12C renal, 1660 nM; in the assay with SNB-75 CNS, 305 nM. Besides, the TGI in the assay on ACHN renal was 17.7 µM; with COLO 205 colon, 2.22 µM; with EKVX NSCLC, 8.99 µM; with HT29 colon, 1.39 µM; in the assay on MDA-MB-231 breast, 4.11 µM; with NCI-H23 lung it was 11.5 µM. Besides, the TGI came to 1.95 µM in the assay with RXF 393 renal, 2.74 µM in the assay on SK-OV-3 ovarian, 10 µM with SN12C renal and 1.55 µM in the assay on SNB-75 CNS.

Consider `Cc1cc2c(cc1C)[n+](=O)c(C(=O)/C=C/c1ccc3c(c1)OCO3)c(C)n2[O-]`, for which the TGI in the assay with ACHN renal was greater than 75.8 µM; in the assay with COLO 205 colon, greater than 100 µM; with EKVX NSCLC, greater than 100 µM; with HT29 colon, greater than 100 µM; with MDA-MB-231 breast it was greater than 100 µM; with NCI-H23 lung, greater than 89.1 µM. The TGI in the assay with RXF 393 renal is 66.6 µM; in the assay with SK-OV-3 ovarian, 52.2 µM; in the assay with SN12C renal it was greater than 100 µM; with SNB-75 CNS, 39.9 µM.

With `CCn1c(-c2c(Cl)cc(O)cc2Cl)cc2c(Cl)cc(O)cc21`, the TGI worked out at 16.9 µM with ACHN renal; 36.8 µM in the assay with COLO 205 colon; 58.5 µM in the assay on EKVX NSCLC; 6.82 µM with HT29 colon; 31 µM with MDA-MB-231 breast; 39 µM in the assay with NCI-H23 lung. Further, the TGI with RXF 393 renal is 8.03 µM; in the assay with SK-OV-3 ovarian it was 37.1 µM; with SN12C renal, greater than 100 µM; with SNB-75 CNS, 20.9 µM.
